Results taken from US10039795B2, “Codon optimized recombinant phage and methods of using same” (priority 2014, dated 2018).
Where two headings read alike, the source gives them in different places.

Columns and labels:
Type in all cases: cell-based
Listeria = system: Listeria
1893 cell-type = test: Sanitizer neutralization assay, phage infection step; conditions: added to NIB-14; 2 mM sodium metabisulfite or 0.05% sodium thiosulfate
Method: Following the 30 minute incubation period, the luciferase marker containing phage was added in BHI medium, and the samples were further allowed to incubate for an additional 3 hours at 30° C. The enzyme was then detected by the addition of the NanoGlo luciferin substrate and luminescence measurement. […] Another variant of this assay involved the direct incubation of the sterilization chemical with the NanoGlo luciferin substrate in the absence of either cells, phage or enzyme.

[1] = system: bacterial cells (Listeria); test: RLU after phage infection in the presence of increasing quaternary ammonium salts; conditions: additive in Listeria Growth Broth
Excerpt: Bacterial cells were exposed to luciferase encoding phage in the following buffers, Listeria growth broth, Listeria growth broth with TWEEN®-80, or to Listeria growth broth with the addition of both TWEEN®-80 and lecithin. The RLU values are shown on the y-axis.
The addition of TWEEN®-80, either alone or in combination with lecithin, to the Formulation-2 (NIB-12) medium allowed for protection of the samples from interference by quaternary ammonium salts. (See FIG. 14). […] In this case, there was a sustained, detectable RLU in the presence of up to 62.5 ppm quaternary ammonium salts. The amount of resistance to quaternary ammonium salts was further increased through the addition of both lecithin and TWEEN®-80. With the addition of both reagents to Listeria Growth Broth, there was detectable RLU up to 125 ppm quaternary ammonium salts. Another preferred embodiment of the media contains 1.5% of TWEEN®-80 and 0.22% of lecithin.

[2] = system: bacteria exposed to luciferase encoding phage; test: Phage infection and enzyme activity across media formulations (RLU); conditions: comparison across media formulations and additives
Method: A systematic comparison of RLU values as a function of additive component was performed on various media formulations. (See FIG. 15). The effects of different additives on both enzymatic activity, as well as infection ability, was measured and compared by way of assessing RLU across the different conditions.

[3] = system: stressed bacterial cells (Listeria); conditions: for effect on infection rate or enzymatic activity: antifungal agent added to base medium
Method: Media were screened for the ability to support high infection rate and high signal intensity following infection with phage encoding a luciferase marker. Bacterial cells were purposefully stressed by way of drying for 18 hours on a stainless steel table, followed by re-suspension in brain-heart infusion medium (BHI) for 30 minutes. The recovered cells were then infected with phage containing a luciferase marker for 6 hours followed by testing of the enzymatic activity using unpurified phage lysate and NanoLuc reagent.
BHI and TSB media were further titrated to assess whether there was an increase in RLU at different concentrations of base media.
Select components were added to the media in order to remedy known stressors to cells, and to reduce the possibility for other chemicals interfering with the test results. To this end, lithium chloride was added at defined concentrations to the selected 1×TSB base medium, followed by infecting the cells with a luciferase containing phage, and lastly by assaying the RLU detectable as a function of the percentage of lithium chloride added to the media. Lithium chloride was selected as an additive in order to overcome, prevent or limit growth of competing biologicals. […] (See FIG. 11).
Components selected to overcome cell starvation and oxidative stress, glucose and yeast extract, respectively, were titrated in 1×TSB, followed by infection of the bacteria with luciferase containing phage, and lastly by assaying the RLU detectable as a function of the percentage of either glucose or yeast extract.
Antifungal agents were also added to the base medium and tested in order to determine whether there is a decrease in RLU activity, either as a result of loss of enzyme activity or because of reduced infection ability. The anti-fungal agents tested included cycloheximide solution in DMSO.
The effect of divalent cations added to Formulation-1 was assessed. MgSO4 or CaCl2 was added to Formulation-1, followed by infection of bacteria with luciferase encoding phage, and assessment of resultant RLU.
The resultant formulation that incorporates all of the components of Formulation-1A, with the addition of HEPES, is herein referred to as Formulation-2 or as NIB-12.

[4] = component of aqueous solution (infection buffer)

Compound | Effect on Listeria Detection (Listeria; [4]) | further results
[Ca+2].[Cl-].[Cl-] [Calcium chloride] | – | Effect on Listeria Detection (Listeria): neutral
O=S(=O)(O)CCCN1CCOCC1 [MOPS, pH 7.2, MOPS] | positive | –
O=S([O-])S(=O)(=O)[O-].[Na+].[Na+] [Sodium metabisulfite] | positive | effect of oxygen scavenger on oxidizing effect of peroxide (1893 cell-type): reduced the oxidizing effect of peroxide
Polysorbate 80 | positive | quaternary ammonium salts concentration up to which RLU is detectable [1]: up to 62.5 ppm; infection ability (RLU) [2]: large impact in increasing infection ability
O=C([O-])CC(O)(CC(=O)[O-])C(=O)[O-].[Na+].[Na+].[Na+] [Sodium citrate] | negative | –
O=S(=O)(O)CCN1CCN(CCO)CC1 [HEPES, pH 7.4, HEPES] | positive | ideal HEPES concentration for high RLU activity ([3]; titrated into Formulation-1A, 3 hour and 6 hour time points): 20 mM
O=S([O-])([O-])=S.[Na+].[Na+] [Sodium thiosulfate] | – | Effect on Listeria Detection (Listeria): negative; effect of oxygen scavenger on oxidizing effect of peroxide (1893 cell-type): reduced the oxidizing effect of peroxide
C[S+](C)[O-] [DMSO] | – | effect on infection rate or enzymatic activity [3]: Neither cycloheximide nor DMSO resulted in a decrease
CC(=O)C(=O)[O-].[Na+] [Sodium pyruvate] | positive | RLU activity on addition of pyruvate ([3]; HEPES titration experiment): further increased RLU activity; infection ability (RLU) [2]: large impact in increasing infection ability
[Cl-].[Li+] [Lithium chloride] | optimized | additive concentration giving highest RLU / selected on RLU levels ([3]; titrated in 1×TSB, 3 hour and 6 hour assay points): 0.25%
C[N+](C)(C)CCOP(=O)(O)O.[Cl-] [Phosphocholine chloride] | negative | –
O=C([O-])CS.[Na+] [Sodium thioglycollate] | negative | –
Polysorbate 20 | negative | –
CO[C@@]1(NC(=O)C(C(=O)O)c2ccc(O)cc2)C(=O)N2C(C(=O)O)=C(CSc3nnnn3C)CO[C@@H]21 (stereo partly drawn) [Moxalactam, reference compound] | neutral | –
Ferric ammonium citrate | neutral | –
O=S(=O)([O-])[O-].[Mg+2] [Magnesium sulphate] | positive | RLU activity on addition of divalent cation ([3]; added to Formulation-1, in comparison to CaCl2): marked increase; infection ability (RLU) [2]: large impact in increasing infection ability

Compound | Effect on Listeria Detection (Listeria; [4]) | further results
Ferric sulfate | neutral | –
Ferric citrate | neutral | –
OC[C@H]1O[C@@](CO)(O[C@H]2O[C@H](CO)[C@@H](O)[C@H](O)[C@H]2O)[C@@H](O)[C@@H]1O [Sucrose] | neutral | –
O=S(=O)([O-])[O-].[Fe+2] [Ferrous sulphate] | negative | –
N[C@@H](CCC(=O)[O-])C(=O)[O-].[Na+].[Na+] [Sodium glutamate] | neutral | –
O=C([O-])CC(=O)[O-].[Na+].[Na+] [Sodium malonate] | negative | –
Cc1ncc(C[n+]2csc(CCO)c2C)c(N)n1 [Thiamine] | neutral | –
C[C@@H]1C[C@@H]([C@H](O)CC2CC(=O)NC(=O)C2)C(=O)[C@@H](C)C1 [Cycloheximide] | neutral | effect on infection rate or enzymatic activity [3]: Neither cycloheximide nor DMSO resulted in a decrease
O-octophosphorylcholine | negative | –
O=C(O)CCC(=O)C(=O)O [Alpha-ketoglutarate] | negative | –
CC(C)(O/N=C(\C(=O)N[C@@H]1C(=O)N2C(C(=O)[O-])=C(C[n+]3ccccc3)CS[C@H]12)c1csc(N)n1)C(=O)O [Ceftazidime, reference compound] | positive | –
Triton X-100 | negative | –
Acriflavin | negative | –
CCn1cc(C(=O)O)c(=O)c2ccc(C)nc21 [Nalidixic acid, reference compound] | positive | –
OCC(O)CO [Glycerol] | neutral | –
